# Experimental data from PubChem BioAssay (NCI).
#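 GI50: concentration for 50% inhibition of growth. Definition used: TGI = concentration required for complete inhibition of growth.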
# Legend:
# Test in all cases: NCI tumour cell line growth inhibition, 384-well format
# 786-0 renal = system: 786-0 renal
# A498 renal = system: A498 renal
# A549 NSCLC = system: A549 NSCLC
# ACHN renal = system: ACHN renal
# BT-549 breast = system: BT-549 breast
# CAKI-1 renal = system: CAKI-1 renal
# CCRF-CEM leukemia = system: CCRF-CEM leukemia
# COLO 205 colon = system: COLO 205 colon
# DU-145 prostate = system: DU-145 prostate
# EKVX NSCLC = system: EKVX NSCLC
# HCC-2998 colon = system: HCC-2998 colon
# HCT-116 colon = system: HCT-116 colon
# HCT-15 colon = system: HCT-15 colon
# HL-60(TB) leukemia = system: HL-60(TB) leukemia
# HOP-62 NSCLC = system: HOP-62 NSCLC
# HOP-92 NSCLC = system: HOP-92 NSCLC
# HS 578T breast = system: HS 578T breast
# HT29 colon = system: HT29 colon
# IGROV1 ovarian = system: IGROV1 ovarian
# KM12 colon = system: KM12 colon
# LOX IMVI melanoma = system: LOX IMVI melanoma
# M14 melanoma = system: M14 melanoma
# MALME-3M melanoma = system: MALME-3M melanoma
# MCF7 breast = system: MCF7 breast
# MDA-MB-231 breast = system: MDA-MB-231 breast
# MDA-MB-435 melanoma = system: MDA-MB-435 melanoma
# MDA-MB-468 breast = system: MDA-MB-468 breast
# MOLT-4 leukemia = system: MOLT-4 leukemia
# NCI-H226 lung = system: NCI-H226 lung
# NCI-H23 lung = system: NCI-H23 lung
# NCI-H460 NSCLC = system: NCI-H460 NSCLC
# NCI-H522 lung = system: NCI-H522 lung
# NCI/ADR-RES ovarian = system: NCI/ADR-RES ovarian
# OVCAR-3 ovarian = system: OVCAR-3 ovarian
# OVCAR-4 ovarian = system: OVCAR-4 ovarian
# OVCAR-5 ovarian = system: OVCAR-5 ovarian
# OVCAR-8 ovarian = system: OVCAR-8 ovarian
# PC-3 prostate = system: PC-3 prostate
# RPMI-8226 leukemia = system: RPMI-8226 leukemia
# RXF 393 renal = system: RXF 393 renal
# SF-268 CNS = system: SF-268 CNS
# SF-295 CNS = system: SF-295 CNS
# SF-539 CNS = system: SF-539 CNS
# SK-MEL-28 melanoma = system: SK-MEL-28 melanoma
# SK-MEL-5 melanoma = system: SK-MEL-5 melanoma
# SK-OV-3 ovarian = system: SK-OV-3 ovarian
# SN12C renal = system: SN12C renal
# SNB-19 CNS = system: SNB-19 CNS
# SNB-75 CNS = system: SNB-75 CNS
# SR leukemia = system: SR leukemia
# SW-620 colon = system: SW-620 colon
# TK-10 renal = system: TK-10 renal
# UACC-257 melanoma = system: UACC-257 melanoma
# UACC-62 melanoma = system: UACC-62 melanoma
# UO-31 renal = system: UO-31 renal
compound,measurement,setting,value
CCN1C(=O)N(c2c(F)c(OC)cc(OC)c2F)Cc2cnc3[nH]c(CN4CCOCC4)cc3c21,GI50,786-0 renal,6.99 µM
same,TGI,786-0 renal,> 100 µM
same,GI50,A498 renal,2.03 µM
same,TGI,A498 renal,57.3 µM
same,GI50,A549 NSCLC,4.69 µM
same,TGI,A549 NSCLC,> 31.6 µM
same,GI50,ACHN renal,3.86 µM
same,TGI,ACHN renal,> 100 µM
same,GI50,BT-549 breast,0.0807 µM
same,TGI,BT-549 breast,7.02 µM
same,GI50,CAKI-1 renal,1.03 µM
same,TGI,CAKI-1 renal,> 31.4 µM
same,GI50,CCRF-CEM leukemia,5.26 µM
same,GI50,COLO 205 colon,> 100 µM
same,TGI,COLO 205 colon,> 100 µM
same,GI50,DU-145 prostate,3.85 µM
same,TGI,DU-145 prostate,> 100 µM
same,GI50,EKVX NSCLC,> 81 µM
same,TGI,EKVX NSCLC,> 100 µM
same,GI50,HCC-2998 colon,6.61 µM
same,TGI,HCC-2998 colon,> 100 µM
same,GI50,HCT-116 colon,3.84 µM
same,TGI,HCT-116 colon,> 100 µM
same,GI50,HCT-15 colon,3.17 µM
same,TGI,HCT-15 colon,> 100 µM
same,GI50,HL-60(TB) leukemia,3.28 µM
same,TGI,HL-60(TB) leukemia,12.5 µM
same,GI50,HOP-62 NSCLC,4.98 µM
same,TGI,HOP-62 NSCLC,> 100 µM
same,GI50,HOP-92 NSCLC,3.5 µM
same,TGI,HOP-92 NSCLC,23.6 µM
same,GI50,HS 578T breast,1.06 µM
same,TGI,HS 578T breast,5.82 µM
same,GI50,HT29 colon,6.48 µM
same,GI50,IGROV1 ovarian,4.55 µM
same,TGI,IGROV1 ovarian,> 100 µM
same,GI50,KM12 colon,9.71 µM
same,TGI,KM12 colon,> 31.6 µM
same,GI50,LOX IMVI melanoma,4.03 µM
same,TGI,LOX IMVI melanoma,> 31.5 µM
same,GI50,M14 melanoma,5.19 µM
same,TGI,M14 melanoma,> 100 µM
same,GI50,MALME-3M melanoma,4.24 µM
same,TGI,MALME-3M melanoma,> 30.1 µM
same,GI50,MCF7 breast,> 60.4 µM
same,TGI,MCF7 breast,> 100 µM
same,GI50,MDA-MB-231 breast,6.15 µM
same,TGI,MDA-MB-231 breast,43.5 µM
same,GI50,MDA-MB-435 melanoma,> 100 µM
same,TGI,MDA-MB-435 melanoma,> 100 µM
same,GI50,MDA-MB-468 breast,3.64 µM
same,TGI,MDA-MB-468 breast,9.09 µM
same,GI50,MOLT-4 leukemia,1.95 µM
same,TGI,MOLT-4 leukemia,4 µM
same,TGI,NCI-H226 lung,9.91 µM
same,GI50,NCI-H23 lung,> 23.3 µM
same,TGI,NCI-H23 lung,> 100 µM
same,GI50,NCI-H460 NSCLC,3.48 µM
same,TGI,NCI-H460 NSCLC,> 31.6 µM
same,GI50,NCI-H522 lung,> 26.1 µM
same,TGI,NCI-H522 lung,> 100 µM
same,GI50,NCI/ADR-RES ovarian,4.51 µM
same,TGI,NCI/ADR-RES ovarian,> 100 µM
same,GI50,OVCAR-3 ovarian,5.94 µM
same,TGI,OVCAR-3 ovarian,> 31.6 µM
same,GI50,OVCAR-4 ovarian,19.3 µM
same,TGI,OVCAR-4 ovarian,> 100 µM
same,GI50,OVCAR-5 ovarian,> 73.3 µM
same,TGI,OVCAR-5 ovarian,> 100 µM
same,GI50,OVCAR-8 ovarian,4.8 µM
same,TGI,OVCAR-8 ovarian,> 100 µM
same,GI50,PC-3 prostate,> 100 µM
same,TGI,PC-3 prostate,> 100 µM
same,GI50,RPMI-8226 leukemia,2.11 µM
same,TGI,RPMI-8226 leukemia,6.34 µM
same,GI50,RXF 393 renal,0.962 µM
same,GI50,SF-268 CNS,5.25 µM
same,TGI,SF-268 CNS,16.9 µM
same,GI50,SF-295 CNS,4.62 µM
same,TGI,SF-295 CNS,47.4 µM
same,GI50,SF-539 CNS,3.55 µM
same,TGI,SF-539 CNS,> 44.5 µM
same,GI50,SK-MEL-28 melanoma,> 100 µM
same,TGI,SK-MEL-28 melanoma,> 100 µM
same,GI50,SK-MEL-5 melanoma,5.75 µM
same,TGI,SK-MEL-5 melanoma,> 100 µM
same,GI50,SK-OV-3 ovarian,2.62 µM
same,TGI,SK-OV-3 ovarian,> 100 µM
same,GI50,SN12C renal,5.32 µM
same,TGI,SN12C renal,> 100 µM
same,GI50,SNB-19 CNS,> 100 µM
same,TGI,SNB-19 CNS,> 100 µM
same,GI50,SNB-75 CNS,0.0229 µM
same,TGI,SNB-75 CNS,6.52 µM
same,GI50,SR leukemia,2.67 µM
same,TGI,SR leukemia,8.35 µM
same,GI50,SW-620 colon,7.31 µM
same,GI50,TK-10 renal,> 100 µM
same,TGI,TK-10 renal,> 100 µM
same,GI50,UACC-257 melanoma,> 100 µM
same,TGI,UACC-257 melanoma,> 100 µM
same,GI50,UACC-62 melanoma,3.8 µM
same,TGI,UACC-62 melanoma,> 100 µM
same,GI50,UO-31 renal,> 31 µM
same,TGI,UO-31 renal,> 100 µM
